# Experimental data published in patent publication US20160022684A1, “BET INHIBITOR AND BRUTON'S TYROSINE KINASE INHIBITOR COMBINATIONS” (Pharmacyclics LLC, priority 2014, published 2016).
# Assays:
# Type in all cases: cell-based
# OCI-LY10 = assay: Combined drug treatment cell viability (CellTiter-Glo), ibrutinib with BET inhibitors, OCI-LY10; conditions: OCI-LY-10, JQ1 1 uM, 3 days
# Protocol: (§1) The DLBCL cell lines used during the experiments included TMD8, OCI-LY3, OCI-LY10, U-2932 and SU-DHL-2. DLBCL cells at either 1×10^4 cells or 2×10^4 cells were plated onto each well of a 96-W plate (Table 1). […] The 96-W plate was then incubated for 3 days. Cell viability was examined using a CellTiter-Glo assay. A 40 μL of CellTiter-Glo reagent was added directly into each well of the 96-W plate. The plate was then shaken on a Shaker ([…]) at speed 5 for 10-20 min at room temperature. Next, about 100 μL of the mixed medium was transferred to a white, non-transparent, flat bottom 96-W plate for assaying. […] Measurements were taken at room temperature. CellTiter-Glow reagents were thawed prior to use. Cells pre-plated onto a second 96-W plate and incubated at room temperature for 30 minutes were used for calibration purposes. […] CI is a quantitative description of the interaction property of the combination of two drugs.
# TMD8 = assay: Combined drug treatment cell viability (CellTiter-Glo), ibrutinib with BET inhibitors, TMD8; conditions: JQ1 20 nM, 3 days
# Protocol: as §1
# OCI-LY3 = assay: Combined drug treatment cell viability (CellTiter-Glo), ibrutinib with BET inhibitors, OCI-LY3; conditions: OCI-LY-3, JQ1 1 uM, 3 days
# Protocol: as §1
# SU-DHL-2 = assay: Combined drug treatment cell viability (CellTiter-Glo), ibrutinib with BET inhibitors, SU-DHL-2; conditions: JQ1 100 nM, 3 days
# Protocol: as §1
# U-2932 = assay: Combined drug treatment cell viability (CellTiter-Glo), ibrutinib with BET inhibitors, U-2932; conditions: U2932, JQ1 20 nM, 3 days
# Protocol: as §1
# [1] = ibrutinib 0 nM (BET inhibitor alone): I-BET151 5 uM, OTX015 1 uM
# [2] = ibrutinib 0.0256 nM with I-BET151 5 uM, OTX015 1 uM or medium alone (row)
# [3] = ibrutinib 0.64 nM with I-BET151 5 uM, OTX015 1 uM or medium alone (row)
# [4] = ibrutinib 3.2 nM with I-BET151 5 uM, OTX015 1 uM or medium alone (row)
# [5] = ibrutinib 16 nM with I-BET151 5 uM, OTX015 1 uM or medium alone (row)
# [6] = ibrutinib 80 nM with I-BET151 5 uM, OTX015 1 uM or medium alone (row)
# [7] = ibrutinib 400 nM with I-BET151 5 uM, OTX015 1 uM or medium alone (row)
# [8] = ibrutinib 2000 nM with I-BET151 5 uM, OTX015 1 uM or medium alone (row)
# [9] = ibrutinib 10000 nM with I-BET151 5 uM, OTX015 1 uM or medium alone (row)
# [10] = ibrutinib […] with I-BET151 5 uM, OTX015 1 uM or medium alone (row)
# [11] = ibrutinib 0 nM (BET inhibitor alone): I-BET151 200 nM, OTX015 100 nM
# [12] = ibrutinib 0.0256 nM with I-BET151 200 nM, OTX015 100 nM or medium alone (row)
# [13] = ibrutinib 0.64 nM with I-BET151 200 nM, OTX015 100 nM or medium alone (row)
# [14] = ibrutinib 3.2 nM with I-BET151 200 nM, OTX015 100 nM or medium alone (row)
# [15] = ibrutinib 16 nM with I-BET151 200 nM, OTX015 100 nM or medium alone (row)
# [16] = ibrutinib 80 nM with I-BET151 200 nM, OTX015 100 nM or medium alone (row)
# [17] = ibrutinib 400 nM with I-BET151 200 nM, OTX015 100 nM or medium alone (row)
# [18] = ibrutinib 2000 nM with I-BET151 200 nM, OTX015 100 nM or medium alone (row)
# [19] = ibrutinib 10000 nM with I-BET151 200 nM, OTX015 100 nM or medium alone (row)
# [20] = ibrutinib […] with I-BET151 200 nM, OTX015 100 nM or medium alone (row)
# [21] = ibrutinib 0 nM (BET inhibitor alone): I-BET151 2 uM, OTX015 1 uM (Table 2)
# [22] = ibrutinib 0.0256 nM with I-BET151 2 uM, OTX015 1 uM (Table 2) or medium alone (row)
# [23] = ibrutinib 10000 nM with I-BET151 2 uM, OTX015 1 uM (Table 2) or medium alone (row)
# [24] = ibrutinib […] with I-BET151 2 uM, OTX015 1 uM (Table 2) or medium alone (row)
# [25] = ibrutinib 0 nM (BET inhibitor alone): I-BET151 200 nM, OTX015 50 nM (Table 2)
# [26] = ibrutinib 0.0256 nM with I-BET151 200 nM, OTX015 50 nM (Table 2) or medium alone (row)
# [27] = ibrutinib 0.64 nM with I-BET151 200 nM, OTX015 50 nM (Table 2) or medium alone (row)
# [28] = ibrutinib 3.2 nM with I-BET151 200 nM, OTX015 50 nM (Table 2) or medium alone (row)
# [29] = ibrutinib 16 nM with I-BET151 200 nM, OTX015 50 nM (Table 2) or medium alone (row)
# [30] = ibrutinib 80 nM with I-BET151 200 nM, OTX015 50 nM (Table 2) or medium alone (row)
# [31] = ibrutinib 400 nM with I-BET151 200 nM, OTX015 50 nM (Table 2) or medium alone (row)
# [32] = ibrutinib 2000 nM with I-BET151 200 nM, OTX015 50 nM (Table 2) or medium alone (row)
# [33] = ibrutinib 10000 nM with I-BET151 200 nM, OTX015 50 nM (Table 2) or medium alone (row)
# [34] = ibrutinib […] with I-BET151 200 nM, OTX015 50 nM (Table 2) or medium alone (row)
smiles,measurement,setting,value
Cc1sc2c(c1C)C(c1ccc(Cl)cc1)=N[C@@H](CC(=O)Nc1ccc(O)cc1)c1nnc(C)n1-2 [OTX015],luminescent signals,OCI-LY10; [1],45142.68
same,luminescent signals,OCI-LY10; [2],42481.51
same,luminescent signals,OCI-LY10; [3],40790.66
same,luminescent signals,OCI-LY10; [4],33872.14
same,luminescent signals,OCI-LY10; [5],29764.67
same,luminescent signals,OCI-LY10; [6],25880.72
same,luminescent signals,OCI-LY10; [7],25433.68
same,luminescent signals,OCI-LY10; [8],24952.47
same,luminescent signals,OCI-LY10; [9],23945.32
same,luminescent signals,OCI-LY10; [10],42647.18
same,luminescent signals,TMD8; [11],47319.47
same,luminescent signals,TMD8; [12],11004.22
same,luminescent signals,TMD8; [13],9847.13
same,luminescent signals,TMD8; [14],9773.329
same,luminescent signals,TMD8; [15],9272.538
same,luminescent signals,TMD8; [16],9472.854
same,luminescent signals,TMD8; [17],9301.531
same,luminescent signals,TMD8; [18],10927.78
same,luminescent signals,TMD8; [19],7055.879
same,luminescent signals,TMD8; [20],11191.36
same,luminescent signals,OCI-LY3; [1],12422.08
same,luminescent signals,OCI-LY3; [2],14387.47
same,luminescent signals,OCI-LY3; [3],13925.64
same,luminescent signals,OCI-LY3; [4],14043.72
same,luminescent signals,OCI-LY3; [5],13776.07
same,luminescent signals,OCI-LY3; [6],14290.38
same,luminescent signals,OCI-LY3; [7],15615.51
same,luminescent signals,OCI-LY3; [8],15793.94
same,luminescent signals,OCI-LY3; [9],14418.95
same,luminescent signals,OCI-LY3; [10],12918.02
same,luminescent signals,SU-DHL-2; [21],945.707
same,luminescent signals,SU-DHL-2; [22],1016.636
same,luminescent signals,SU-DHL-2; [23],782.836
same,luminescent signals,SU-DHL-2; [24],1087.564
same,luminescent signals,U-2932; [25],55416.46
same,luminescent signals,U-2932; [26],53427.04
same,luminescent signals,U-2932; [27],50299.31
same,luminescent signals,U-2932; [28],45013.52
same,luminescent signals,U-2932; [29],49095.12
same,luminescent signals,U-2932; [30],44565.57
same,luminescent signals,U-2932; [31],48570.75
same,luminescent signals,U-2932; [32],44022.77
same,luminescent signals,U-2932; [33],33140.26
same,luminescent signals,U-2932; [34],51182.03
COc1cc2c(cc1-c1c(C)noc1C)ncc1[nH]c(=O)n([C@H](C)c3ccccn3)c12 [I-BET151],luminescent signals,OCI-LY10; [1],43633.29
same,luminescent signals,OCI-LY10; [2],41108.85
same,luminescent signals,OCI-LY10; [3],38594.93
same,luminescent signals,OCI-LY10; [4],31834.18
same,luminescent signals,OCI-LY10; [5],23382.58
same,luminescent signals,OCI-LY10; [6],21683.85
same,luminescent signals,OCI-LY10; [7],21781.14
same,luminescent signals,OCI-LY10; [8],22475.36
same,luminescent signals,OCI-LY10; [9],21920.51
same,luminescent signals,OCI-LY10; [10],38721.15
same,luminescent signals,TMD8; [11],53526.63
same,luminescent signals,TMD8; [12],14177.65
same,luminescent signals,TMD8; [13],12722.72
same,luminescent signals,TMD8; [14],11655.25
same,luminescent signals,TMD8; [15],11328.42
same,luminescent signals,TMD8; [16],11526.1
same,luminescent signals,TMD8; [17],11191.36
same,luminescent signals,TMD8; [18],11183.45
same,luminescent signals,TMD8; [19],6995.257
same,luminescent signals,TMD8; [20],13950.98
same,luminescent signals,OCI-LY3; [1],14156.55
same,luminescent signals,OCI-LY3; [2],15418.7
same,luminescent signals,OCI-LY3; [3],15156.3
same,luminescent signals,OCI-LY3; [4],13849.54
same,luminescent signals,OCI-LY3; [5],14914.89
same,luminescent signals,OCI-LY3; [6],13899.4
same,luminescent signals,OCI-LY3; [7],15392.46
same,luminescent signals,OCI-LY3; [8],13151.56
same,luminescent signals,OCI-LY3; [9],14424.2
same,luminescent signals,OCI-LY3; [10],12962.63
same,luminescent signals,SU-DHL-2; [21],793.343
same,luminescent signals,SU-DHL-2; [22],714.534
same,luminescent signals,"SU-DHL-2; ibrutinib 0.64 nM with I-BET151 2 uM, OTX015 1 uM (Table 2) or medium alone (row)",704.027
same,luminescent signals,"SU-DHL-2; ibrutinib 3.2 nM with I-BET151 2 uM, OTX015 1 uM (Table 2) or medium alone (row)",809.105
same,luminescent signals,"SU-DHL-2; ibrutinib 16 nM with I-BET151 2 uM, OTX015 1 uM (Table 2) or medium alone (row)",843.256
same,luminescent signals,"SU-DHL-2; ibrutinib 80 nM with I-BET151 2 uM, OTX015 1 uM (Table 2) or medium alone (row)",922.065
same,luminescent signals,"SU-DHL-2; ibrutinib 400 nM with I-BET151 2 uM, OTX015 1 uM (Table 2) or medium alone (row)",798.597
same,luminescent signals,"SU-DHL-2; ibrutinib 2000 nM with I-BET151 2 uM, OTX015 1 uM (Table 2) or medium alone (row)",717.161
same,luminescent signals,SU-DHL-2; [23],585.813
same,luminescent signals,SU-DHL-2; [24],835.375
same,luminescent signals,U-2932; [25],50367.82
same,luminescent signals,U-2932; [26],45116.29
same,luminescent signals,U-2932; [27],42565.61
same,luminescent signals,U-2932; [28],43472.05
same,luminescent signals,U-2932; [29],43980.61
same,luminescent signals,U-2932; [30],43659.14
same,luminescent signals,U-2932; [31],44468.08
same,luminescent signals,U-2932; [32],42568.25
same,luminescent signals,U-2932; [33],32015.12
same,luminescent signals,U-2932; [34],44167.69
